Laboratory results: article PMC7465040, “Cytotoxic and Anti-Plasmodial Activities of Stephania dielsiana Y.C. Wu Extracts and the Isolated Compounds” (Molecules, 2020)
Where two headings read alike, the source gives them in different places.

Legend:
MDA-MB-231 = assay: SRB cell proliferation assay, MDA-MB-231; type: cell-based, human; conditions: for IC50: Homo sapiens, MDA-MB-231, 72 h, read-out: IC50 (μM ± SD) MDA-MB-231
Method: (§1) In vitro anticancer study: The in vitro anti-proliferative tests were carried out as described previously, using aliquots of the cell lines used therein. Briefly, HeLa, MDA-MB-231 and MDA-MB-468, MCF7, and 184B5 and MCF 10A cell lines were purchased from ATCC. The identity of the cell lines presented in this study were verified by short tandem repeat profiling by Genetica DNA Laboratories (www.celllineauthentication.com) (April 8, 2015). MCF10A was grown in DMEM F12 medium supplemented with 0.02 μg/mL epidermal growth factor, 10% FBS, 10 μg/mL insulin and […] hydrocortisone. MDA-MB-468 were grown in DMEM supplemented with 10% FBS and antibiotics cocktail (100 μg/mL streptomycin, 100 units/mL penicillin and 250 ng/mL amphotericin B). SRB cell proliferation assays were carried out as previously described, with some minor modifications. The concentration range for all tested cell lines were from 100–0.39 μg/mL for extracts and 100–0.39 μM for pure compounds. […] All experiments were carried out at least twice.

[1] = test system: chloroquine-resistant W2 P. falciparum strain; assay: In vitro anti-plasmodial assay (HRP2 ELISA), W2; type: cell-based, Plasmodium falciparum; conditions: for IC50: Plasmodium falciparum, W2, 72 h, read-out: IC50 (μM ± SD) W2; for SI W2 184B5: selectivity index between 184B5 and parasites W2
Method: (§2) Parasites were grown in A-positive human blood (Etablissement Français du Sang, Marseille, France) under controlled atmospheric conditions that consisted of 10% O2, 5% CO2, and 85% N2 at 37 °C with a humidity of 95%.
(§3) In vitro anti-plasmodial assay: The two P. falciparum strains 3D7 and W2 were synchronized twice with sorbitol before use. The clonality of these strains was verified both in our laboratory and in an independent laboratory from the Worldwide Anti-malarial Resistance Network (WWARN) by PCR genotyping of the polymorphic genetic markers msp1 and msp2 and microsatellite loci. The compounds were re-suspended in methanol or DMSO 5% (v/v) and then diluted in methanol to obtain final concentrations ranging from 0.008 to 500 μg/mL (final concentration of 0.5% of methanol or DMSO). […] The plates were incubated for 72 h at 37 °C in controlled atmospheric conditions 5% CO2, 10% O2, and […]. After thawing the plates, haemolysed cultures were homogenized by vortexing the plates. Both the success of the drug susceptibility assay and the appropriate volume of haemolysed culture to use for each assay were determined for each clinical isolate during a preliminary HRP2 ELISA. Both the pre-test and subsequent ELISA assays were performed using a commercial kit (Malaria Ag Celisa, ref KM2159, Cellabs PTY LTD, Brookvale, Australia) according to the manufacturer’s recommendation. The optical density (OD) of each sample was measured with a spectrophotometer (Safire 2, Tecan, Lyon, France). […] The anti-plasmodial in vitro assay was performed five times for each product. The IC50 values represented the mean value calculated from five experiments. According to Hout, a selectivity index (SI) was based on the ratio between anti-parasitic and cytotoxic activities. In the case of our study, a SI was calculated between non-tumorigenic cell line 184B5 and parasites 3D7 or W2 and/or MCF10A and these two parasites.

MCF7 = assay: SRB cell proliferation assay, MCF7; type: cell-based, human; conditions: for IC50: Homo sapiens, MCF7, 72 h, read-out: IC50 (μM ± SD) MCF7
Method: as §1

HeLa = assay: SRB cell proliferation assay, HeLa; type: cell-based, human; conditions: for IC50: Homo sapiens, HeLa, 72 h, read-out: IC50 (μM ± SD) HeLa
Method: as §1

[2] = test system: chloroquine-susceptible 3D7 P. falciparum strain; assay: In vitro anti-plasmodial assay (HRP2 ELISA), 3D7; type: cell-based, Plasmodium falciparum; conditions: for IC50: Plasmodium falciparum, 3D7, 72 h, read-out: IC50 (μM ± SD) 3D7; for SI 3D7 184B5: selectivity index between 184B5 and parasites 3D7
Method: as §2, §3

MDA-MB-468 = assay: SRB cell proliferation assay, MDA-MB-468; type: cell-based, human; conditions: for IC50: Homo sapiens, MDA-MB-468, 72 h, read-out: IC50 (μM ± SD) MDA-MB-468
Method: as §1

184B5 = assay: SRB cell proliferation assay, 184B5 non-cancer cells; type: cell-based, human; conditions: Homo sapiens
Method: as §1

MCF 10A = assay: SRB cell proliferation assay, MCF10A non-cancer cells; type: cell-based; conditions: Homo sapiens, read-out: IC50 (μM ± SD) MCF 10A
Method: as §1

[3] = test system: Plasmodium falciparum 3D7 and W2 strains; assay: In vitro anti-plasmodial assay, both strains; type: cell-based
Method: as §2, §3

[4] = test system: HeLa, MDA-MB231, MDA-MB-468, MCF7, 184B5 and MCF10A cell lines; assay: SRB cell proliferation assay, whole panel of cell lines; type: cell-based, human; conditions: Homo sapiens, read-out: IC50 values, range over the cell lines examined
Method: as §1

[5] = 184B5, 72 h, read-out: IC50 (μM ± SD) 184B5
[6] = 184B5, read-out: IC50 (μM ± SD) 184B5
[7] = 72 h, HRP2 ELISA, mean of five experiments

Row | Structure (SMILES) | IC50 (MDA-MB-231) [µM] | IC50 [1] [µM] | IC50 (MCF7) [µM] | IC50 (HeLa) [µM] | IC50 [2] [µM] | IC50 (MDA-MB-468) [µM] | IC50 (184B5; [5]) [µM] | IC50 (184B5; [6]) [µM] | IC50 (MCF 10A; 72 h) [µM] | IC50 (MCF 10A) [µM] | SI W2 184B5 ([1]; Table 3) | SI 3D7 184B5 ([2]; Table 3) | IC50 [1, 7] [µM] | IC50 [2, 7] [µM] | further results
1 | CCN(CC)CCCC(C)Nc1ccnc2cc(Cl)ccc12 (stereo not drawn) [Chloroquine, reference compound] | 28.9 ± 0.4 | 0.38 ± 0.03 | > 50 | 29.8 ± 0.7 | 0.021 ± 0.005 | 33.2 ± 0.4 | > 50 | > 50 | 40.5 ± 9.8 | 40.5 ± 9.8 | – | – | – | – | –
2 | COc1ccc2c(c1OC)CC1c3c(cc4c(c3-2)OCO4)CCN1C (stereo not drawn) [Crebanine 4, crebanine] | 38.9 ± 7.1 | 2.16 ± 0.38 | 30.5 ± 4.89 | 48.1 ± 2.38 | 1.56 ± 0.22 | 17.8 ± 4.63 | 47.4 ± 2.83 | 47.4 ± 2.83 | 47.2 ± 4.37 | 47.2 ± 4.37 | 21.96 | 30.41 | – | – | Selectivity index (SI) 184B5 versus MDA-MB-231 (MDA-MB-231; Table 2B, non-cancer 184B5 vs cancer MDA-MB-231): 1.22; Selectivity index (SI) MCF10A versus MDA-MB-231 (MDA-MB-231; Table 2B, non-cancer MCF10A vs cancer MDA-MB-231): 1.21; SI W2 MCF10A ([1]; Table 3, selectivity index between MCF10A and parasites W2): 21.83; Selectivity index (SI) 184B5 versus MCF7 (MCF7; Table 2B, non-cancer 184B5 vs cancer MCF7): 1.56; Selectivity index (SI) MCF10A versus MCF7 (MCF7; Table 2B, non-cancer MCF10A vs cancer MCF7): 1.55; Selectivity index (SI) 184B5 versus HeLa (HeLa; Table 2B, non-cancer 184B5 vs cancer HeLa): 0.99; Selectivity index (SI) MCF10A versus HeLa (HeLa; Table 2B, non-cancer MCF10A vs cancer HeLa): 0.98; Anti-plasmodial activity against both 3D7 and W2 (in words) [3]: strong activity; SI 3D7 MCF10A ([2]; Table 3, selectivity index between MCF10A and parasites 3D7): 30.23; Selective index SI on 3D7 strain ([2]; vs 184B5 and MCF10A): > 20; Selectivity index (SI) 184B5 versus MDA-MB-468 (MDA-MB-468; Table 2B, non-cancer 184B5 vs cancer MDA-MB-468): 2.66; Selectivity index (SI) MCF10A versus MDA-MB-468 (MDA-MB-468; Table 2B, non-cancer MCF10A vs cancer MDA-MB-468): 2.65; IC50 [4]: 17 to 48 µM
3 | C[C@H]1[C@@H](O)O[C@@H]2O[C@@]3(C)CC[C@H]4[C@H](C)CC[C@@H]1[C@@]24OO3 [Dihydroartemisinin, reference compound] | – | – | – | – | – | – | – | – | – | – | – | – | 0.002 ± 0.001 | 0.002 ± 0.001 | –
4 | OC(c1cc(C(F)(F)F)nc2c(C(F)(F)F)cccc12)C1CCCCN1 (stereo not drawn) [Mefloquine, reference compound] | – | – | – | – | – | – | – | – | – | – | 490.9 | 207.6 | 0.022 ± 0.006 | 0.052 ± 0.009 | IC50 (184B5; 184B5, Table 3, non-cancer cell line, read-out: IC50 (μM ± SD) 184B5): 10.8 ± 0.75 µM
